In patent US9517238B2, “Compositions and methods for treating allergic inflammation through inhibition of NTRK1” (CHILDREN'S HOSPITAL MEDICAL CENTER, priority 2014, dated 2016):

Legend:
NTRK1 = molecular target: T1, NTRK1 (Homo sapiens, UniProt P04629); experiment: NGF-mediated induction of EGR genes in TE-7 cells stably expressing NTRK1, with tyrosine kinase inhibitors; type: cell-based; conditions: TE-7 epithelial cells, NGF stimulation
T1 construct: expressed in transfected cells
From the text: In order to further investigate the functional link between IL-13 and NGF signaling we generated two pools of TE-7 cells stably expressing NTRK1 that allowed us to simultaneously induce IL-13 and NGF/NTRK1 responses.
We further hypothesized that inhibition of NTRK1 kinase activity will prevent induction of EGR genes following NGF stimulation. To test this hypothesis we utilized two tyrosine kinase inhibitors lestaurtinib (CEP-701) and crizotinib that were previously reported as efficient blockers of NTRK1 auto-phosphorylation and downstream signaling.

[1] = tested on: NTRK1 expression in esophageal biopsies; experiment: RT-PCR analysis of NTRK1 in esophageal biopsies of EoE patients after swallowed steroid treatment; type: in vivo, human; conditions: EoE patients who responded to swallowed steroid treatment (FPR, n=13) vs active EoE and controls; FIG. 4A
Description: FIG. 4. NTRK1, NGF, and EGR1 expression in human allergic inflammation. In A, RT-PCR analysis of NTRK1 in biopsies was performed in unaffected control patients (Ctrl, n=13), patients with active EoE (EoE, n=12), and EoE patients who responded to swallowed steroid treatment (fluticasone responders [FPR], n=13); ***p<0.001; ns, not significant. In B and C, the graphs show Pearson correlation of NTRK1 expression with IL-13 levels and peak eosinophil counts in EoE biopsies. […] In E, quantification of NTRK1 in control and active EoE biopsies is shown (n=5 each); *p<0.05. Expression level was normalized to the level of GAPDH. In F, RT-PCR analysis of NGF and CCL26 was performed in control and EoE biopsies (n=10 each); ****p<0.0001; ns, not significant. In G, amount of NGF and CCL26 protein was measured by ELISA in control and active EoE biopsies (n=5 each); *p<0.05; ns, not significant. […] In I, EGR1 mRNA was measured by RT-PCR in esophageal biopsies of unaffected control (Ctrl) patients and patients with active EoE (n=10 each). ***p<0.001. […]
In vitro experiments with epithelial cells prompted us to investigate whether NTRK1 is increased in epithelial cells in vivo during allergic responses. First, we assessed expression of NTRK1 mRNA in esophageal biopsies of control and EoE patients. […]

T1 sequence (P04629 33-796): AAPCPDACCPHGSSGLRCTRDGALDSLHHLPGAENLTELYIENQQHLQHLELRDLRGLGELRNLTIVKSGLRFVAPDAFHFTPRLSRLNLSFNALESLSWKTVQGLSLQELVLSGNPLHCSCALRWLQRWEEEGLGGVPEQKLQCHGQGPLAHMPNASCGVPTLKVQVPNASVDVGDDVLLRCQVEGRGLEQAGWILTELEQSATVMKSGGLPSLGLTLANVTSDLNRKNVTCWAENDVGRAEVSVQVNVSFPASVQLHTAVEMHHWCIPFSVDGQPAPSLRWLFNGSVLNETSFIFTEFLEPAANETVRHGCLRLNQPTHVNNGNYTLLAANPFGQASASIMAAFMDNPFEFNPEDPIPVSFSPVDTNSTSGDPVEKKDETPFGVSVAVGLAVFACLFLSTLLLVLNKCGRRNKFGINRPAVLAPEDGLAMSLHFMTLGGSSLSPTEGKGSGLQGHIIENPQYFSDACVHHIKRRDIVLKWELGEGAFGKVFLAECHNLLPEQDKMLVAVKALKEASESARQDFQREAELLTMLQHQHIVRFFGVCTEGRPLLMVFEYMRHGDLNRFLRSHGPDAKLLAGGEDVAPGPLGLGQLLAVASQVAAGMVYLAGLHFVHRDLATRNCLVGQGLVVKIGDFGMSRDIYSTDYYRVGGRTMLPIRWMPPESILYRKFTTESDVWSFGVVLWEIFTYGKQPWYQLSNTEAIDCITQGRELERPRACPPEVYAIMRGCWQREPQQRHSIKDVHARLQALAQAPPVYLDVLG

NGF-mediated increase in EGR1 mRNA (NTRK1; EGR1 mRNA)	NGF-mediated increase in EGR3 mRNA (NTRK1; EGR3 mRNA)	Compound	NTRK1 mRNA expression in esophageal biopsies [1]
dramatically reduced	dramatically reduced	C[C@@H](Oc1cc(-c2cnn(C3CCNCC3)c2)cnc1N)c1c(Cl)ccc(F)c1Cl [crizotinib]	
		CCC(=O)O[C@]1(C(=O)SCF)[C@H](C)C[C@H]2[C@@H]3C[C@H](F)C4=CC(=O)C=C[C@]4(C)[C@@]3(F)[C@@H](O)C[C@@]21C [fluticasone propionate]	normalized levels
